Article PMC6273176, “In Silico Mining for Antimalarial Structure-Activity Knowledge and Discovery of Novel Antimalarial Curcuminoids” (Molecules, 2016)
Like-named read-outs stand apart in the source and are kept apart here.

Key:
[1] = system: P. falciparum 3D7 strain; assay: Antiplasmodial activity, SYBR Green I assay on P. falciparum 3D7 cultures; format: cell-based, Plasmodium falciparum; details: for IC50: read-out: Plasmodium falciparum 3D7 Strain IC50 ± SD
Procedure: In vitro biological assays. Compounds were tested to establish a full dose-titration and determination of the IC50. […] Antiplasmodial activity. The P. falciparum 3D7 strain was maintained in O+ human erythrocytes in albumin RPMI-supplemented medium under continuous culture using the candle-jar method. The parasites were synchronized to the ring stage by repeated sorbitol treatment. A 2.5% (v/v) erythrocyte suspension with 1% parasitemia (number of parasites per 100 red blood cells) was incubated with the compounds to be tested, previously dissolved in DMSO. […] After 44 h of incubation at 37 °C, the plates were subjected to 3 freeze-thaw cycles to achieve complete hemolysis. […] The incorporation of SYBR Green I (Applied Biosystems) in parasite DNA was measured using the Master […]® (Eppendorf) according to the following program to increase the SYBR Green incorporation: 90 °C (1 min), decrease in temperature from 90 °C to 10 °C (during 5 min) with reading the fluorescence. Then, the IC50 was calculated by icestimator software.

[2] = Cytotoxicity assay on MRC-5 fibroblasts (resazurin); format: cell-based, human; details: human
Procedure: (§1) In vitro biological assays. Compounds were tested to establish a full dose-titration and determination of the IC50. […] The selectivity antiprotozoal potential on P. falciparum (3D7 strain) was assessed by simultaneous evaluation of cytotoxicity on a fibroblast (MRC-5) cell line.
(§2) Cytotoxicity assay. […] Cell viability was assessed fluorometrically after 4 h of the addition of resazurin. Fluorescence was measured (excitation 550 nm, emission 590 nm), and the results were expressed as % reduction in cell viability compared to untreated control. Tamoxifen is used as the reference control.

[3] = system: human fibroblast MRC-5 cell line; assay: as above; format: cell-based
Procedure: as §1, §2

[4] = Plasmodium falciparum, 3D7, 44 h, 3D7 strain, ring-stage synchronized, 44 h incubation, SYBR Green I
[5] = MRC-5 SV2 cells, 72 h, resazurin, read-out: Cytotoxicity MRC-5 CC50
[6] = Plasmodium falciparum, 3D7, 44 h

Row | SMILES | IC50 [1, 4] | CC50 at 72 h [2] | SI CC50/IC50 [3] | cytotoxicity classification from CC50 [3] | also measured
1 | O=C1C[C@@H](c2c(Cl)cccc2Cl)S[C@@H](c2c(Cl)cccc2Cl)C1 [Compound B4] | 60.4 ± 10.2 nM | – | – | – | –
2 | CC/C(=C(\c1ccccc1)c1ccc(OCCN(C)C)cc1)c1ccccc1 [tamoxifen, reference compound] | – | – | – | – | CC50 at 72 h ([2]; MRC-5 SV2 fibroblast cells, MRC-5 SV2 cells, 72 h, resazurin, read-out: Cytotoxicity MRC-5 CC50): 9120 nM
3 | COc1ccc(O)c(/C=C/C(=O)/C=C/c2cc(OC)ccc2O)c1 [Compound A2] | 30.2 ± 6.3 nM | 1880 nM | 62.2 | – | cytotoxicity classification from CC50 ([3]; MRC-5 cells, class in words): rather cytotoxic
4 | CN(C)c1ccc(/C=C/C(=O)/C=C/c2nccs2)cc1 [Compound A6] | 111 ± 12.5 nM | > 64000 nM | – | – | –
5 | O=C1C[C@@H](c2c(Cl)cccc2Cl)S[C@H](c2c(Cl)cccc2Cl)C1 [Compound B8] | > 500 nM | > 64000 nM | <128 | – | –
6 | COc1cc(Br)c(OC)c([C@@H]2CC(=O)C[C@H](c3cc(OC)cc(Br)c3OC)S2)c1 [Compound B1] | 30.3 ± 6.1 nM | > 64000 nM | >2112.2 | – | –
7 | O=C(/C=C/c1ccccc1)/C=C/c1ccccn1 [Compound A10] | 161 ± 20.5 nM | 1530 nM | 9.5 | rather cytotoxic | –
8 | COc1ccc(/C=C/C(=O)/C=C/c2ccc3ccccc3c2)cc1 [Compound A3] | 51.2 ± 10.7 nM | 32000 nM | 625 | rather not cytotoxic | –
9 | COc1cc([C@@H]2CC(=O)C[C@@H](c3cc(OC)c(C)cc3OC)S2)c(OC)cc1C [Compound B2] | 30.6 ± 9.2 nM | – | – | – | –
10 | CN(C)c1ccc(/C=C/C(=O)/C=C/c2ccc(F)cn2)cc1 [Compound A5] | 110 ± 20.3 nM | 32200 nM | 292.4 | rather not cytotoxic | –
11 | O=C(/C=C/c1ccccc1)/C=C/c1ncccn1 [Compound A14] | > 500 nM | 1560 nM | <3.1 | rather cytotoxic | –
12 | O=C1C[C@H](c2ccccn2)[S+]([O-])[C@@H](c2ccccn2)C1 [Compound B3] | 40.1 ± 7.3 nM | 8000 nM | 199.5 | – | cytotoxicity classification from CC50 ([3]; MRC-5 cells, class in words): moderately cytotoxic
13 | O=C(/C=C/c1ccc(Cl)cc1)/C=C/c1ccc(Cl)cc1 [Compound A9] | 121 ± 12.4 nM | 42400 nM | 351.6 | rather not cytotoxic | –
14 | O=C1C[C@H](c2ccccn2)[S+]([O-])[C@H](c2ccccn2)C1 (stereo partly drawn) [Compound B5] | – | 8060 nM | 33.6 | – | IC50 ([1]; 3D7 strain, ring-stage synchronized, 44 h incubation, SYBR Green I): 240 ± 48.1 nM; cytotoxicity classification from CC50 ([3]; MRC-5 cells, class in words): moderately cytotoxic
15 | COc1ccc(/C=C/C(=O)/C=C/c2ccc(N)cc2)cc1 [Compound A15] | > 500 nM | – | – | – | –
16 | O=C1C[C@H](c2ccccn2)S[C@@H](c2ccccn2)C1 [Compound B7] | > 500 nM | – | <128 | – | CC50 at 72 h [2, 5]: > 64000 nM
17 | CN(C)c1ccc([C@H]2CC(=O)C[C@H](c3ccc(N(C)C)cc3)S2)cc1 [Compound B12] | > 500 nM | 4960 nM | <9.9 | moderately cytotoxic | observed activity against 3D7 P. falciparum strain (in words) ([1]; in vitro 3D7 culture, active/inactive): inactive

Row | SMILES | IC50 [1, 4] | CC50 at 72 h [2] | SI CC50/IC50 [3] | cytotoxicity classification from CC50 [3] | also measured
18 | O=C(/C=C/c1ccco1)/C=C/c1ccco1 [Compound A8] | 121 ± 10.5 nM | – | >530.2 | – | CC50 at 72 h [2, 5]: > 64000 nM
19 | COc1ccc([C@H]2CC(=O)C[C@H](c3ccc(OC)cc3)S2(=O)=O)cc1 [Compound B10] | > 500 nM | – | <128 | – | CC50 at 72 h [2, 5]: > 64000 nM
20 | Cc1ccc(/C=C/C(=O)/C=C/c2ccc(C)o2)o1 [Compound A16] | > 500 nM | 5360 nM | <10.7 | – | cytotoxicity classification from CC50 ([3]; MRC-5 cells, class in words): rather cytotoxic
21 | O=C(/C=C/c1c(Cl)cccc1Cl)/C=C/c1c(Cl)cccc1Cl [Compound A12] | 240 ± 20.4 nM | – | >266.5 | – | CC50 at 72 h [2, 5]: > 64000 nM
22 | Cc1ccc(/C=C/C(=O)/C=C/c2ccc(C)cc2)cc1 [Compound A17] | > 500 nM | 32500 nM | <64.9 | rather not cytotoxic | –
23 | O=C(/C=C/c1ccccc1)/C=C/c1ccncc1 [Compound A7] | 120 ± 17.3 nM | 1990 nM | 16.5 | rather cytotoxic | –
24 | O=C(/C=C/c1ccccc1Cl)/C=C/c1ccccc1Cl [Compound A11] | 181 ± 29.6 nM | 29400 nM | 162.3 | – | –
25 | O=C(/C=C/c1ccncc1)/C=C/c1ccncc1 [Compound A13] | > 500 nM | 1130 nM | <2.3 | rather cytotoxic | –
26 | O=C(/C=C/c1ccc(F)cc1)/C=C/c1ccc(F)cc1 [Compound A4] | 70.6 ± 9.7 nM | – | – | – | –
27 | CCN(CC)CCCC(C)Nc1ccnc2cc(Cl)ccc12 (stereo not drawn) [chloroquine, reference compound] | – | – | – | – | IC50 [1, 6]: 20.3 ± 5.2 nM
28 | O=C1C[C@H](c2ccccn2)S(=O)(=O)[C@H](c2ccccn2)C1 [Compound B11] | > 500 nM | 7470 nM | <14.9 | – | cytotoxicity classification from CC50 ([3]; MRC-5 cells, class in words): moderately cytotoxic
29 | COc1cc(/C=C/C(=O)/C=C/c2ccc(O)c(OC)c2)ccc1O [Compound A18] | – | 1060 nM | <2.1 | rather cytotoxic | IC50 [1, 6]: > 500 nM
30 | CN(C)c1ccc(/C=C/C(=O)/C=C/c2ccc(N(C)C)cc2)cc1 [Compound A19] | > 500 nM | 62300 nM | <124.5 | rather not cytotoxic | –
31 | O=C1C[C@H](c2ccccn2)S(=O)(=O)[C@@H](c2ccccn2)C1 [Compound B9] | > 500 nM | 7890 nM | <15.8 | – | cytotoxicity classification from CC50 ([3]; MRC-5 cells, class in words): moderately cytotoxic
32 | O=C1C[C@@H](c2ccccn2)S[C@@H](c2ccccn2)C1 [Compound B6] | > 500 nM | – | <128 | – | CC50 at 72 h [2, 5]: > 64000 nM
33 | O=C(/C=C/c1ccccn1)/C=C/c1ccccn1 [Compound A1] | 30.1 ± 8.5 nM | 1910 nM | 63.4 | – | cytotoxicity classification from CC50 ([3]; MRC-5 cells, class in words): rather cytotoxic
